Data published in article PMC7615677 (Science translational medicine, 2023).
Entries after “also recorded” stand apart in the source; their conditions may differ. Read-outs that look alike come from different tables or passages of the source.

Legend:
[1] = In vitro metabolism, cryopreserved hepatocytes; type: in vitro ADME, rat
Protocol: Cell viability was determined using trypan blue exclusion. The incubation was performed on a plate shaker (Heidolph Titrimax 100, 900 rpm) placed in a humidified incubator (37°C, 7.5% CO2) for 240 min. The reaction was initiated with the addition of compound with samples taken periodically and quenched with the addition of acetonitrile containing internal standards (metolazone and diazepam). Quenched samples were maintained on ice for approximately 20-30 min, centrifuged (for 5 min) and the supernatant analyzed by LC-MS.
In vitro intrinsic clearance (CLint, μL/min/mg or μL/min/10^6 cells) values were calculated from the apparent first order degradation rate constant divided by the microsome concentration or the hepatocyte cell number (10^6 viable cells/mL). In vitro CLint values were then divided by the fraction unbound in the in vitro test system (to give CLint,u) and scaled to in vivo values (mL/min/kg) using published physiological scaling factors ([28]). Blood clearance in each species was then calculated using the well-stirred model of hepatic extraction (equation 2) where Q is the hepatic blood flow and fu,blood is calculated from fu,plasma/B:P: [2] PredictedCLblood=Q x fu,blood x CLint,u/Q+fu,blood x CLint,u
Blood clearance values were converted to plasma clearance by multiplying by the B:P.

L. infantum = assay: PK/PD analysis of liver burden versus cumulative unbound AUC; type: in vivo, hamsters; details: Hamster – L. infantum; estimated using the fitted parameters
Excerpt: To determine the correlation between the pharmacokinetic (PK) and pharmacodynamic (PD) data, repeat dose profiles in mice and hamsters following single and twice daily dosing were simulated using the fitted parameters.
Other parameters were less well correlated to efficacy, presumably given that none reflect the cumulative exposure profile with an extended treatment regimen. […] Results for mice infected with L. donovani were similar to those for L. infantum (Table S15).

[2] = Human PK and dose prediction (IVIVE, allometry, GastroPlus PBPK); details: plasma; for AUC: read-out: target cumulative total human plasma AUC
Excerpt: Human plasma clearance was estimated by in vitro/in vivo extrapolation (IVIVE) of data from liver microsomes and allometry using the available in vivo preclinical data. In both cases, renal excretion of unchanged drug was assumed to be negligible (experimentally confirmed in the rat). […] Therefore, the “rule of exponents” was applied and the unbound clearance data were corrected for brain weight ([13]) as described previously ([14]).
The predicted clearance was input along with the data in Table S16 into a physiologically-based pharmacokinetic (PBPK) model (GastroPlus) to simulate human profiles under different dosing conditions. Given that there was no evidence of renal elimination in rats, it was assumed that clearance occurs solely by hepatic metabolism.
Human clearance was estimated using in vitro/in vivo extrapolation (IVIVE) of data obtained in liver microsomes and cryopreserved hepatocytes incorporating binding to microsomes and hepatocytes, plasma protein binding and the blood to plasma ratio. Scaling factors were as described previously ([12]) and liver blood flows were from Simcyp, assuming an average human body weight of 50 kg was assumed for the patient population ([12]).
The human dose predictions were based on PK and PD data in hamsters (best case scenario) and mice (worst case scenario) and unbound plasma concentrations that led to 95% efficacy. Human profiles were simulated at different doses and dosing regimens (qd or bid) over 10-14 days using GastroPlus (version 9.8, Simulations Plus, Inc., Lancaster, CA). The PBPK model used fasted physiological conditions and a 50 kg 30-year-old American male. The Berezhkovskiy perfusion limited model was used for Kp estimation ([30]). The estimated human plasma clearance was input directly into the model with the assumption that elimination occurred only by hepatic metabolism (consistent with data in rats).

AR = assay: In vitro pharmacology panel (Eurofins); type: binding, human; details: 10 µM
Excerpt: Listed values represent the percent change relative to the DMSO control activity. When an IC50 had to be determined, eight different concentrations were included. All values are the mean of assay readout duplicates.

[3] = Seahorse mitochondrial stress test; type: cell-based; details: human, HepG2 cells; read-out: OCR Basal AC50
Protocol: (§1) Seahorse® 96 well plates were seeded with HepG2 cells and incubated overnight (37°C, 5% CO2). The media in all plate wells was then replaced with Seahorse® assay media and the plates were incubated (37°C, CO2 free) for a further 1 hour before placing in the Seahorse® XFe96 analyser (Agilent Technologies Inc, USA). […] OCR and ECAR were measured for 45 minutes before the sequential addition of oligomycin (ATP synthase inhibitor), FCCP (carbonyl cyanide 4-(trifluoromethoxy) phenylhydrazone, protonophore uncoupler) and rotenone plus antimycin A (Electron transport chain Complex I and III inhibitors respectively). Multiple measurements of OCR and ECAR were made following each of these additions.
(§2) Mean ± standard deviation of the compound ratio data were plotted vs log concentration and curves fitted (as described in [24]) and the minimum effective concentration (MEC) determined using limits based on the DMSO vehicle mean ± 2 standard deviations or, where these limits were deemed too narrow, the DMSO vehicle mean ± minimum limits set for each parameter. The AC50 was calculated using the curve and historical maximum (activation) and minimum (inhibition) responses and is defined as the concentration at which 50% of the maximum or minimum effect is observed, provided a clear concentration response relationship is seen.

HepG2 cells = assay: Seahorse mitochondrial stress test; type: cell-based
Protocol: as §1, §2

Compound: Cc1[nH]c2nc(N)nc(C)c2c1-c1ccc(C#N)c2c1OCO2 [DNDI-6174]
- Hepatocyte predicted in vivo CLplasma ([1]; Rat): 2.7 mL/min/kg
- hepatocyte CLint at 0.5 µM ([1]; rat, cryopreserved hepatocytes): 5.3 ± 0.19 µL/min/1e6 cells
- unbound ED95 (L. infantum): 3.6
- AUC ([2]; male, oral, 27 ug): 460 µg·h/mL
- AUC ([2]; 4 ug): 60 µg·h/mL
- clearance ([2]; from in vitro predictions, read-out: expected plasma clearance in humans): ~1 mL/min/kg
- activity (% of DMSO control) (AR): 99.1%
- AC50 at 45 min [3]: > 200 µM
- OCR Basal minimum effect concentration (MEC) (HepG2 cells): 95.6 µM
- Reserve Capacity, ECAR, Maximum Capacity, ATP production, in words (HepG2 cells): No significant response observed on reserve; also recorded: no changes in Reserve Capacity, ECAR, Maximum Capacity or ATP production
- margin of Seahorse OCR MEC over free concentration at predicted human therapeutic plasma Cmax (HepG2 cells): approximately 187 fold
- ECAR, in words (HepG2 cells; 200 μM): transient increase
- OCR Basal maximum reduction (HepG2 cells; 200 μM): 14%
